# From PMC4826234, “Emodin potentiates the antiproliferative effect of interferon α/β by activation of JAK/STAT pathway signaling through inhibition of the 26S proteasome” (Oncotarget, 2015)
# pIC50: −log10 of the molar value.
# How the values were obtained:
# Format in all cases: biochemical
# [1] = target: T1, 26S proteasome β5 subunit (chymotrypsin-like activity) (Homo sapiens, UniProt P28074); test: peptidase assay of purified human […] proteasome with Suc-Leu-Leu-Val-Tyr-AMC
# T1 construct: gene PSMB5; purified human 26S proteasome; with other subunits of the 26S proteasome
# T1 sequence (P28074 60-263): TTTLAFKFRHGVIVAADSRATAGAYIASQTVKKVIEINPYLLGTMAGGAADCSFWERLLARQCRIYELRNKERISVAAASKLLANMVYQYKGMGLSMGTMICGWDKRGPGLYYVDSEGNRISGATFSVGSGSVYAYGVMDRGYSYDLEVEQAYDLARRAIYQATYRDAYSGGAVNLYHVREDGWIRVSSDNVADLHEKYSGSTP
# [2] = target: T2, 26S proteasome β1 subunit (caspase-like activity) (Homo sapiens, UniProt P28072); test: peptidase assay of purified human […] proteasome with Z-Nle-Pro-Nle-Asp-aminoluciferin
# T2 construct: gene PSMB6; purified human 26S proteasome; with other subunits of the 26S proteasome
# T2 sequence (P28072 35-239): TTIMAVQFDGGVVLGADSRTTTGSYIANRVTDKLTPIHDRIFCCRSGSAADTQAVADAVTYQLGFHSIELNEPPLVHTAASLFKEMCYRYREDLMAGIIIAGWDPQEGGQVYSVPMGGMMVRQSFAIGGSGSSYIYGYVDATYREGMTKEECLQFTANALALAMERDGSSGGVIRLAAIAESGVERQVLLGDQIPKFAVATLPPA
# [3] = target: T3, 26S proteasome β2 subunit (trypsin-like activity) (Homo sapiens, UniProt Q99436); test: peptidase assay of purified human […] proteasome with Ac-Arg-Leu-Arg-AMC
# T3 construct: gene PSMB7; purified human 26S proteasome; with other subunits of the 26S proteasome
# T3 sequence (Q99436 44-277): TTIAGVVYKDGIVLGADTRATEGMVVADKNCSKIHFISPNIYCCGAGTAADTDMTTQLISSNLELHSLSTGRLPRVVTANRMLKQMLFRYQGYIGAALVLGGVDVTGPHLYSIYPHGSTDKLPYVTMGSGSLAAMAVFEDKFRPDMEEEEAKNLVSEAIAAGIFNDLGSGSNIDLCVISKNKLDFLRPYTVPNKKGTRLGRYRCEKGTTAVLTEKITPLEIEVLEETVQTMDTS
smiles,measurement,setting,value
"Cc1cc(O)c2c(c1)C(=O)c1cc(O)cc(O)c1C2=O [emodin, 1,3,8-trihydroxy-6-methylanthraquinone]",pIC50,[1],5.91
same,pIC50,[2],6.62
same,pIC50,[3],4.68
